# Source: patent publication US20150073033A1, “BIOMARKERS FOR CANCER CHARACTERIZATION AND TREATMENT” (Board of Regents, The University of Texas System, priority 2011, published 2015)
# Entries after “also recorded” stand apart in the source; their conditions may differ.
# How the values were obtained:
# [1] = target: c-Src (Homo sapiens, UniProt P12931); test: EGF-induced c-Src activation (Y418 phosphorylation), immunoblotting; format: cell-based; settings: U87/EGFR cells; SU6656 4 μM 30 min before EGF 100 ng/mL 6 h
# Procedure: (§1) Immunofluorescence analyses of endogenous PKM2 or transiently expressed FLAG-PKM1 were performed with the indicated antibodies. […] Immunoblotting analyses were performed with the indicated antibodies. Nuclear PCNA was used as controls for immunoblotting analyses. c: An equal volume of cytosolic and nuclear fractions were prepared from U87/EGFR cells treated with or without EGF (100 ng/mL) for 6 h. Ten microliters of protein from cytosolic and nuclear fractions were used for immunoblotting analyses with the indicated antibodies. d: Nuclear fractions were prepared from U251 cells pretreated with LY290042 (30 μM), SU6656 (4 μM), SP600125 (25 μM), and U0126 (20 μM) for 30 min before EGF (100 ng/mL) for 6 h. Immunoblotting analyses were performed with the indicated antibodies. Nuclear PCNA and cytoplasmic tubulin were used as controls. e: U87/EGFR cells were pretreated with LY290042 (30 μM), SU6656 (4 μM), SP600125 (25 μM), and U0126 (20 μM) for 30 min before EGF (100 ng/mL) for 6 h. Immunoblotting analyses were performed with the indicated antibodies.
# (§2) Extraction of proteins with a modified buffer from cultured cells was followed by immunoprecipitation and immunoblotting with corresponding antibodies, as described previously (Lu et al., 1998).
# [2] = system: β-catenin; test: EGF-induced β-catenin Tyr/Y333 phosphorylation, immunoprecipitation and immunoblotting; format: cell-based, human
# Procedure: FIG. 2: c-Src phosphorylates β-catenin at Y333 upon EGFR activation. a: U87/EGFR cells were treated with SU6656 (4 μM) or an Abl inhibitor (0.2 μM) for 30 min before EGF treatment for 6 h. b: The indicated cells were treated with or without EGF for 6 h. c: β-catenin was immunoprecipitated from the nuclear fractions of U87/EGFR cells treated with or without EGF for 6 h. d, g: U87/EGFR cells transiently expressing the indicated FLAG-tagged β-catenin proteins were treated with or without EGF for 6 h. e: In vitro kinase assays were performed with purified active c-Src and purified β-catenin proteins. f: Immobilized GST-β-catenin proteins were mixed with purified His-PKM2 proteins in the presence or absence of active c-Src.
# (§3) FIG. 16: EGF induces the nuclear translocation of PKM2, c-Src-dependent […] Y333 phosphorylation, and a c-Src-dependent interaction between PKM2 and β-catenin in primary GBM cells. […] Nuclear PCNA and cytoplasmic tubulin were used as controls.
# [3] = system: PKM2-β-catenin interaction; test: EGF-induced association of β-catenin with PKM2 in primary GBM cells (co-IP); format: cell-based; settings: GSC11 and GSC23 human primary GBM cells; SU6656 4 μM 30 min before EGF 100 ng/mL 6 h
# Text: as §3
# [4] = system: U87/EGFRvIII cells; test: Intracranial U87/EGFRvIII xenograft, intratumoral SU6656; format: in vivo, athymic nude mice
# Procedure: FIG. 19: c-Src inhibition suppresses tumorigenesis and reduces β-catenin Y333 phosphorylation and cyclin D1 expression in tumor tissues. a: U87/EGFRvIII (5×10^5) cells were intracranially injected into athymic nude mice. After 5 d, seven mice were sacrificed to examine tumor growth; the remaining mice, whose tumors were intracranially injected with SU6656 (0.015 mg/kg in 5 μL of DMSO) or DMSO every three days, were sacrificed at day 15. […] C: Immunoblotting analyses of the indicated tumor tissues were performed with the indicated antibodies.
# GBM cells (5×10^5) were intracranially injected (in 5 μL of DMEM per mouse), with or without regulation of β-catenin or PKM2 expression, into 4-week-old female athymic nude mice. The intracranial injections were performed, as described in a previous publication (Gomez-Manzano et al., 2006). Seven mice per group in each experiment were included. Animals injected with U87/EGFRvIII or GSC 11 cells were sacrificed 2 weeks or 30 days after glioma cell injection, respectively. The brain of each mouse was harvested, fixed in 4% formaldehyde, and embedded in paraffin. Tumor formation and phenotype were determined by histologic analysis of H & E-stained sections.
# For doxycycline induction studies, seven mice were sacrificed 14 days after GBM cell injection to examine tumor growth, whereas the remaining 14 mice in two groups were fed with or without water containing 800 μg/mL doxycycline. The water containing doxycycline was changed every three days. The mice in these two groups were sacrificed at day 30. For the SU6656 treatment studies, seven mice were sacrificed five days after U87/EGFRvIII cell injection to examine tumor growth, whereas the remaining 14 mice in two groups were treated with either DMSO or SU6656. SU6656 (0.015 mg/kg in 5 μL of DMSO) was intracranially injected into the tumor every three days, and the mice in both groups were sacrificed at day 14 after GBM cell injection.
# [5] = system: PKM2; test: EGF-induced nuclear translocation of PKM2 (cell fractionation, immunoblotting, immunofluorescence); format: cell-based, human; settings: U87/EGFR (and U251) cells; 30 min pretreatment before EGF 100 ng/mL; LY290042 30 μM, SU6656 4 μM, SP600125 25 μM, U0126 20 μM, AG1478 1 μM, cycloheximide 100 μg/mL
# Procedure: Immunoblotting analyses (b, b) were performed with the indicated antibodies. Nuclear PCNA and cytoplasmic tubulin were used as controls. a: The indicated cells were immunostained with an anti-PKM2 antibody.
# Immunoblotting and immunoprecipitation analyses were performed with the indicated antibodies. a: Nuclear fractions were prepared from U87/EGFR cells pretreated with LY290042 (30 μM), SU6656 (4 μM), SP600125 (25 μM), and U0126 (20 μM) for 30 min before EGF (100 ng/mL) for 6 h. Nuclear PCNA and cytoplasmic tubulin were used as controls. b: U87/EGFR cells were pretreated with or without U0126 (20 μM) for 30 min before EGF (100 ng/mL) for 6 h. Immunofluorescence analyses were performed with the indicated antibodies. Nuclei were stained with Hoechst 33342 (blue). c: U251 cells were stably transfected with a vector with or without expressing FLAG-ERK2 K52R (left panel) or transiently transfected with vectors expressing MEK1 Q56P and indicated FLAG-tagged ERK2 proteins (right panel). The cells were treated with or without EGF (100 ng/mL) for 6 h, and the total cell lysates and nuclear fractions were prepared. d: FLAG-PKM2 or FLAG-PKM1 was immunoprecipitated with an anti-FLAG antibody from U87/EGFR cells treated with or without EGF (100 ng/mL) for 30 min. e: Bacterially-purified GST-ERK2 immobilized on glutathione agarose beads was mixed with or without purified His-PKM2. GST pull-down analyses were performed. Ten percent of total His-PKM2 was used as an input. f: U87/EGFR cells transfected with vectors expressing the indicated FLAG-tagged ERK proteins were treated with or without EGF (100 ng/mL) for 30 min. g: U87/EGFR cells expressing the indicated FLAG-PKM2 proteins were treated with or without EGF (100 ng/mL) for 30 min.
# as §1
# Cytosolic and nuclear fractions were prepared. Immunoblotting analyses were performed with the indicated antibodies. b: U87/EGFR cells with depleted endogenous PKM2 and reconstituted expression of RNAi-resistant WT rPKM2 or rPKM2 S37A were treated with or without EGF (100 ng/mL) for 6 h. Total cell lysates (left panel) and nuclear fractions (right panel) were prepared.
# [6] = system: PKM2 expression; test: EGF-induced PKM2 upregulation, immunoblotting; format: cell-based, human; settings: U87/EGFR cells; pretreatment before EGF 100 ng/mL 12 h; AG1478 1 μM, cycloheximide 200 μg/mL, Bis-I 2 μM, Go6976 2 μM, NF-κB activation inhibitor II 7 μM, AKT inhibitor 10 μM, TBB 50 μM, U73122 2 μM
# Procedure: FIG. 56: EGFR activation results in upregulation of PKM2 expression. A-D: Immunoblotting analyses were performed with or without the indicated antibodies. A: The indicated cell lines were treated with EGF (100 ng/mL) for 12 h. B: U87 cells were stably transfected with plasmids expressing EGFR or EGFRvIII. […] D: U87/EGFR cells were pretreated with or without cycloheximide (CHX) (200 μg/mL) for 30 min before EGF (100 ng/mL) treatment for 12 h. […] The relative mRNA levels of PKM2 and PKM1 were normalized to the levels of untreated cells and β-actin mRNA. Data represent the mean±SD of three independent experiments.
# FIG. 57: EGF increases PKM2 expression in a PKC- and NF-κB-dependent manner. A-D, H: Immunoblotting analyses were performed with the indicated antibodies. […] ChIP assay was performed with an anti-RelA antibody for immunoprecipitation, followed by PCR with PKM promoter-specific primers. F: An oligonucleotide containing the putative WT or mutated NF-κB binding sequence was labeled using [γ-^32P] ATP and T4 polynucleotide kinase. […] Samples were subjected to 5% polyacrylamide gel electrophoresis, and the dried gel was exposed to x-ray film. […] The relative levels of luciferase activity were normalized to the levels of untreated cells and to the levels of luciferase activity of the Renilla control plasmid. Data represent the mean±standard deviation of three independent experiments.
# FIG. 58: PKCε downstream from PLCγ1, rather than TAK1, activates IKKβ and subsequently increases PKM2 expression. […] B: U87/EGFR cells were treated with TNFα (10 ng/mL) for the indicated time. C: U87/EGFR cells were treated with or without EGF (100 ng/mL) or TNFα (10 ng/mL) for 4 h. […] HIF1α was immunodepleted from the cell lysates by incubation with an anti-HIF1α antibody, which was followed by a ChIP assay with an anti-FLAG antibody for immunoprecipitation of FLAG-RelA and PCR analysis with PKM promoter-specific primers. […] F: 293T cells were transiently transfected with constitutively active (+) or kinase-dead (−) PKC mutants. […] H, I: 293T cells were transiently transfected with the indicated plasmids.
# [7] = target: T1, IKKβ (Homo sapiens, UniProt O14920); settings: small molecules IKKβ inhibitors; values from the cited references; read-out: IC50 (half maximal inhibitory concentration); cited from earlier work
# T1 sequence (O14920 1-756): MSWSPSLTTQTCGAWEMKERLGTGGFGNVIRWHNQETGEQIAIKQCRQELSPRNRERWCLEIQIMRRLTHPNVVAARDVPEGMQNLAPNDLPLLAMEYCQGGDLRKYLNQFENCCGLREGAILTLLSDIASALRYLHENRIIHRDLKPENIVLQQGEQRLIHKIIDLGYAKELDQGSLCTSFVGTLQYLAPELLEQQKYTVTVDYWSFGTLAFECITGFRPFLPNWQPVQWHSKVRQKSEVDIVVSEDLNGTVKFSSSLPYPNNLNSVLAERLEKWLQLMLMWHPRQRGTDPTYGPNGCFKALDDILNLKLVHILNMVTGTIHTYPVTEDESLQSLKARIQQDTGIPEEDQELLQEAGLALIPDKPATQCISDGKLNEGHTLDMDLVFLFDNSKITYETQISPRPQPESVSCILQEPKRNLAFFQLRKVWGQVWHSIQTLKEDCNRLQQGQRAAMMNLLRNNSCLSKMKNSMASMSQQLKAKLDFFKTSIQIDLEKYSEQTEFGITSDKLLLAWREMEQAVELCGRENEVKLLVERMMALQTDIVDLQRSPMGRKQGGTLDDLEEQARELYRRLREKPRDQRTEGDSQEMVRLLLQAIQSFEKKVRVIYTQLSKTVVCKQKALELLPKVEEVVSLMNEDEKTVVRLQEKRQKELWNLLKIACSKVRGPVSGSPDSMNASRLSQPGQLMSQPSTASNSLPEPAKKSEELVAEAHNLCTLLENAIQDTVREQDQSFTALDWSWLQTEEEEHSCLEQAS
# [8] = system: ERK1/2; test: EGF-induced ERK1/2 phosphorylation, immunoblotting; format: cell-based, human; settings: U87/EGFR cells; AG1478 1 μM or U0126 20 μM 30 min before EGF 6 h
# Procedure: as §1, §2
# [9] = SU6656 0.015 mg/kg intratumoral every three days
# Sequence of c-Src (P12931 whole entry): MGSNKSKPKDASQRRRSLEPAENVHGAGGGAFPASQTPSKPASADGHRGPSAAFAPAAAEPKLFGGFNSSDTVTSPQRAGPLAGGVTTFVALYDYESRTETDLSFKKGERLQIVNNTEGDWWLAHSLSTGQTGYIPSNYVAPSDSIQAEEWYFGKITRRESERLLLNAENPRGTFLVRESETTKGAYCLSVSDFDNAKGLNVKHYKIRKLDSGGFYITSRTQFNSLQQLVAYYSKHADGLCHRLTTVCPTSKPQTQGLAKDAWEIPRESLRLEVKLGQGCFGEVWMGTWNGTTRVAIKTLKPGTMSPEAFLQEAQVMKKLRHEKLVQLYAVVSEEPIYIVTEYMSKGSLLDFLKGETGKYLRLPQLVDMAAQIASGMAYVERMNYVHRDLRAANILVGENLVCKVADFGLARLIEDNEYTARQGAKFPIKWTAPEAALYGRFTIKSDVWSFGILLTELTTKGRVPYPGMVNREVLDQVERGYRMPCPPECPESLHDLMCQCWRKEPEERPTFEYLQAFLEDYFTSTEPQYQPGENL
structure (smiles),measurement,setting,value
CN(C)S(=O)(=O)c1ccc2c(c1)/C(=C/c1cc3c([nH]1)CCCC3)C(=O)N2 [SU6656],EGF-induced activation/phosphorylation of c-Src (Y418),[1],completely abrogated; also recorded: blocked
same,EGF-induced phosphorylation of β-catenin Y333,"[2]; GSC11 and GSC23 human primary GBM cells, SU6656 4 μM 30 min before EGF 100 ng/mL 6 h",blocked
same,EGF-induced Tyr phosphorylation of β-catenin,"[2]; U87/EGFR cells, SU6656 4 μM or Abl inhibitor 0.2 μM 30 min before EGF 6 h",blocked
same,EGF-induced association of β-catenin with PKM2,[3],blocked
same,tumor growth,[4]; SU6656 0.015 mg/kg in 5 μL DMSO intratumoral every three days vs DMSO,significantly blocked tumor growth
same,cyclin D1 expression in tumor tissue,[4]; [9],inhibited
same,phosphorylation level of c-Src Y418 in tumor tissue,[4]; [9],reduced
same,phosphorylation level of β-catenin Y333 in tumor tissue,[4]; [9],reduced
same,EGF-induced nuclear accumulation/translocation of PKM2,[5],only inhibition of MEK/ERK abrogated
C[C@@H]1C[C@@H]([C@H](O)CC2CC(=O)NC(=O)C2)C(=O)[C@@H](C)C1 [cycloheximide],EGF-induced nuclear accumulation/translocation of PKM2,[5],did not inhibit
same,EGF-induced PKM2 upregulation/expression,[6],inhibited
O=C(Nc1cc(Cl)cc2c1[nH]c1cnccc12)c1cccnc1 [PS1145],IC50,[7],88 nM
O=C(N/N=C/c1ccc([N+](=O)[O-])cc1)c1ccc2ccccc2c1 [LASSBio-1524],IC50,[7],20000 nM
C[C@]1(CO)CN(c2cc(C(=O)Nc3ccc4c(c3)-c3c(c(C(N)=O)nn3-c3ccc(F)cc3)CC4)c(Cl)cn2)C[C@@]1(C)CO [PF-184],IC50,[7],37 nM
Cc1cc(N)ccc1N=Nc1ccc(S(=O)(=O)CCOS(=O)(=O)O)cc1 [NSC 676914],IC50,[7],17000 nM
COc1cc2ncnc(Nc3cccc(Cl)c3)c2cc1OC [AG1478],EGF-induced nuclear accumulation/translocation of PKM2,[5],abrogated
same,EGF-induced phosphorylation of ERK1/2,[8],blocked
same,EGF-induced PKM2 upregulation/expression,[6],blocked; also recorded: abrogated
O=C(Nc1cc(C(F)(F)F)cc(C(F)(F)F)c1)c1cc(Cl)ccc1O [IMD-0354],IC50,[7],280 to 3000 nM
